Data as given in patent publication US20090214607A1, “Topical use of teprenone” (SEDERMA, priority 2005, published 2009).

Legend:
Hsp27 = Hsp27 immunolabeling in UVB-irradiated human skin explants; type: cell-based; conditions: 0.1 mM
Excerpt: (§1) Heat Schock proteins (Hsp) are cellular protective molecules which contribute to the correct proteinic folding, thus preserving the protein activity. Hsp 27 is a protective chaperone protein very present in the keratinocytes at the basal state. In situation of UV stress, cell increases its rate of protection and Hsp 27 is strongly overexpressed. Hsp70 is a chaperone protein less expressed in a basal state but induced in response to the UV, thermics, mechanics or infectious stress.
(§2) Human skin explants are treated in a similar way to the previous experiment (protection on the catalase activity): taken from a plastic surgery, they are cultivated for 48 h in the presence or not, for control, of teprenone (or trolox) at various concentrations, then irradiated or not using a source UVB (2 J/cm2). After irradiation skin explants were post-treated (24 h) or not with teprenone (or trolox) at the same concentrations.
(§3) Explants were embedded in OCT, sectioned using a freezing microtome, and slide mounted. The mounted specimens were immunolabeled with anti-human Hsp antibody.

[1] = Lipid peroxidation of liposomes using H2O2+FeCl2; type: biochemical; conditions: vs negative control
Description: (§4) In order to determine the action of teprenone as per the invention, the effect of the active substance on the lipid peroxidation of liposomes was analyzed. The liposomes were used to model cutaneous lipids.
In this method, liposomes are exposed to the test compound and a Fenton oxidative system. The peroxidation is determined by spectrophotometry. Trolox, a known anti-free radical agent, is used as the positive control at the same molar concentration as a teprenone.

catalase = assay: Catalase activity in human skin explants after UVB (Clairborne-Aebi method); type: cell-based; conditions: after UVB 2 J/cm2; 0.05 mM
Description: Human skin explants obtained from a patient having undergone plastic surgery were cultured with or without teprenone or Trolox (positive control) for 48 hours then exposed to UV B radiation (2 J/cm^2). After irradiation, the explants were again cultured in fresh medium with or without teprenone or Trolox for 24 hours. Similars explants were also used in immunolabeling tests on heat shock proteins (HSP) and in the apoptosis study.
Catalase anti-oxidant activity was determined by the Clairborne-Aebi method. Hydrogen peroxide (H2O2) consumption is directly proportional to catalase activity. The consumption was determined by spectrophotometry at 240 nm

Hsp70 = Hsp70 immunolabeling in UVB-irradiated human skin explants; type: cell-based; conditions: 0.1 mM
Excerpt: as §1, §2, §3

[2] = Lipid peroxidation of liposomes using UVA radiation; type: biochemical; conditions: UVA induced, vs negative control
Description: as §4
In this method, liposomes are exposed to the test compound and then to UV A radiation. Peroxidation is determined by spectrophotometry at 233 nm.

[3] = test system: sunburn cells (SBC) in human skin explants; assay: Sunburn cells (SBC) in human skin explants after UVB; type: cell-based; conditions: after UVB 2 J/cm^2
Description: With a view to determining the action of teprenone as per the invention, the effect of the active substance on the presence of sunburn cells (SBC) and apoptotic cell in human skin explants was investigated.
Human skin explants are treated in a way similar to the preceding experiment of description of the protective role of the teprenone on the catalase activity (obtained from a patient having undergone plastic surgery, cultured with or without teprenone for 48 hours then exposed to UV B radiation (2 J/cm^2). After irradiation, the explants were again cultured in fresh medium with or without teprenone for 24 hours).
SBC were evidenced on paraffin-wax-embedded skin explant sections by staining with […]. SBC, apoptotic keratinocytes with pyknotic nuclei and eosinophilic cytoplasm, are characteristic of mammalian epidermis exposed to UV B radiation.

SMILES: Cc1c(C)c2c(c(C)c1O)CCC(C)(C(=O)O)O2 (centres unmarked) [Trolox, 6-hydroxy-2,5,7,8-tetramethylchroman-2-carboxylic acid]
- Hsp27: Protection vs. irradiated (%) (Hsp27): 75%
- Number of Hsp27 positive cells/cm (Hsp27; UVB 2 J/cm2, n = 3): 380 cells/cm
- Variation of peroxydation ([1]; concentration 2.2 · 10^−2%): −88%
- Variation of peroxydation ([1]; concentration 2.2 · 10^−3%): −87%
- Variation of peroxydation ([1]; concentration 2.2 · 10^−4%): −83%
- Variation of peroxydation ([1]; concentration 7.5 · 10^−3%): −87%
- Variation of peroxydation ([1]; concentration 7.5 · 10^−4%): −82%
- catalase activity (catalase): 90 UI/mg of protein
- Hsp70: Protection vs. irradiated (%) (Hsp70): 100%
- Number of Hsp70 positive cells/cm (Hsp70; UVB 2 J/cm2, n = 3): 40 cells/cm
- Variation of peroxydation ([2]; concentration 2.2 · 10^−2%): −86%
- Variation of peroxydation ([2]; concentration 2.2 · 10^−3%): −88%
- Variation of peroxydation ([2]; concentration 2.2 · 10^−4%): −74%
- Variation of peroxydation ([2]; concentration 7.5 · 10^−3%): −88%
- Variation of peroxydation ([2]; concentration 7.5 · 10^−4%): −86%
- % SBC (Sun Burn Cells) ([3]; 0.05 mM): 45%
- % SBC (Sun Burn Cells) ([3]; 0.1 mM): 30%
